The values that follow come from patent publication US8236809B2, “Substituted 1,2,3-triazolopyrimidines for the inhibition of NAD(P)H oxidases and platelet activation” (Vasopharm GmbH, priority 2004, dated 2012).

Assay [1] has as its target NAD(P)H oxidases (NOX) in HL-60 cells (Homo sapiens, UniProt P04839). Kind of assay: Assay of NOX activity: cytochrome C reduction in PMA-stimulated differentiated HL-60 cells. The class given is cell-based. The settings on record: HL-60; DPI final conc. 10 μM, control inhibitor; 'usually'; read-out: Residual activity of DPI-treated cells (NOX activity as % of the activity in PMA-stimulated control cells).
Method: (§1) Measurement of cytochrome C-reduction was used to assess the NOX-activity in HL-60 cells.
(§2) The human acute myeloid leukemia cell line HL-60 (ECACC 98070106) was cultured in RPMI 1640 (Biochrom, Berlin, Germany) supplemented with 5% heat-inactivated calf serum, 2 mM glutamine (GLUTAMAX, Invitrogen, Karlsruhe, Germany), 100 U/ml penicillin (Sigma, Taufkirchen, Germany), and 100 μg/ml streptomycin (Sigma, Taufkirchen, Germany) at 37° C. under a humidified atmosphere of 5% CO2. Cells were maintained at 0.1−2.0×10^6 cells/ml. To induce myeloid differentiation, the cells were seeded to a density of 0.5×10^6 cells/ml and cultivated for 6 days in medium containing 1.25% (v/v) dimethylsulfoxide (DMSO). […]
(§3) E550 and E540 were measured once before stimulation of the cells on a micro-plate reader (Multiskan Spektrum, Thermo Electron Corporation, Dreieich, Germany). E540 was the isosbestic point and used to normalize absorbance at 550 nm (E550/E540). […]
(§4) The plate was shaken for 10 sec in the micro-plate reader and then incubated at 37° C. under a humidified atmosphere of 5% CO2. E550 and E540 were measured after 60 and 120 min.
(§5) For calculation, the absorbance at 550 nm was normalized to absorbance at the isosbestic point at 540 nm for each individual well. […] NOX-activities were expressed as % of the activity in PMA-stimulated control cells. […]

For assay [2], the system named is platelets. Put plainly: Inhibition of thrombin-induced (TRAP-6) platelet activation: P-Selectin expression on washed platelets, flow cytometry. The class given is cell-based. The settings on record: Homo sapiens, 5 μmol/l compound, 1 min pre-incubation, washed platelets stimulated 2 min with TRAP-6, read-out: % Inhibition of activation (percent reduction of TRAP-6 induced P-Selectin expression). How it is done:
Expression of P-Selectin on the surface of platelets was used as a marker of platelet activation.
All experiments were performed with washed platelets (PRP). Fresh venous blood from healthy volunteers (40 ml) was collected into 10 ml of 5-fold CCD-solution (7 mM citric acid, 100 mM trisodium citrate, 140 mM glucose, 15 mM EGTA as anti-coagulant, pH 6.5). Platelet rich plasma was prepared by centrifugation at 300 g for 20 min. The supernatant was collected and incubated for 10 min at room temperature. Platelets were pelleted from the supernatant by a second centrifugation step at 500 g for 20 min. The pellet was resuspended in 5 ml HEPES buffer (145 in M NaCl, 5 mM KCl, 1 in M MgCl2, 10 mM glucose, 10 mM HEPES, pH 7.4). Platelet concentration was adjusted to 3×10^8 platelets/ml with HEPES buffer.
Washed platelets (0.2 ml) were silenced for 1 h at room temperature in siliconised reaction tubes. After pre-incubation with compounds of example 1-11 for 1 min the washed platelets were stimulated for 2 min with thrombin receptor activating peptide (TRAP-6, BACHEM Biochemicals, Heidelberg, Germany).
As a positive control, 0.2 ml of washed platelets were pre-incubated with 10 μM of the NO-releasing compound sodium nitroprussid (SNP, Sigma, Deisenhofen).
After incubation, 20 μl of the sample was pipetted to 10 μl of FITC-labelled anti-CD62P antibody (DAKO, Glostrup, Denmark) and incubated for 15 min in the dark. After incubation the samples were diluted with 1.5 ml of phosphate buffered saline and immediately measured on a cytometer.
For background substraction, one sample was incubated with 10 μl of FITC-labelled un-specific mouse IgG1 (DAKO, Glostrup, Denmark).
For cytometry the Becton-Dickinson FACS-Calibur instrument (settings: FSC: E00; SSC: 337 V; FL-1:600 V) was used. For each measurement 20000 cells were analysed. Results were obtained as mean fluorescence intensity (MFI) calculated using the CellQuest program (Ver. 1.0; Becton-Dickinson).
Inhibition of platelet activation is given as percent reduction of TRAP-6 induced P-Selectin expression in the presence of 5 μmol/l of examples 1-11: […]
(A flow cytometer gives signals particle by particle.)

The subject of assay [3] is NAD(P)H oxidases (NOX) in HL-60 cells. Kind of assay: Assay of NOX activity: cytochrome C reduction in PMA-stimulated differentiated HL-60 cells. Format: cell-based, human. The settings on record: 100 U/ml superoxide dismutase, used as a control in some experiments.
Method: as §1, §2, §3, §4, §5

NAD(P)H oxidases (NOX) in HL-60 cells (Homo sapiens, UniProt P04839), sequence (P04839 whole entry): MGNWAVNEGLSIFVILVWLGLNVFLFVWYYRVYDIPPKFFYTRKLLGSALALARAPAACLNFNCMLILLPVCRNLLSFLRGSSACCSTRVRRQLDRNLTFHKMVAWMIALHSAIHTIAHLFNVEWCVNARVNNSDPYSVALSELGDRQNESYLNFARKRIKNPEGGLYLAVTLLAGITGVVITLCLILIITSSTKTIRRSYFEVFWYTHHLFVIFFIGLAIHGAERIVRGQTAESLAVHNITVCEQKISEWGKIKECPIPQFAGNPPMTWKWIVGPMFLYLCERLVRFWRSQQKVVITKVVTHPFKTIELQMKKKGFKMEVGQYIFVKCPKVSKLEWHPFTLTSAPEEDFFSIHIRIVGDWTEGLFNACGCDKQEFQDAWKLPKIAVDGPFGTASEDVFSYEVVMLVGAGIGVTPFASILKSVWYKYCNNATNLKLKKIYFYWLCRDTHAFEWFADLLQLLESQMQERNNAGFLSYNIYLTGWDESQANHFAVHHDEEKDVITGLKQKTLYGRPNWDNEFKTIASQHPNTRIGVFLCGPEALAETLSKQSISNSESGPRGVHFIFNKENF

Turning to `c1ccc2c(c1)[I+]c1ccccc1-2` [DPI, Diphenyleneiodonium chloride], in assay [1], the activity at 10 µM was below 10%. What is called inhibition is the relative decrease from the control value, in per cent. Consider `c1ccc(Cn2nnc3c(Sc4nc5ccccc5o4)ncnc32)cc1` [Example 1, 3-benzyl-7-(2-benzoxazolyl)thio-1,2,3-triazolo[4,5-d]pyrimidine], for which the inhibition at 5 µM in assay [2] was determined as 49%.

On to `c1ccc(Cn2nnc3c(Sc4ccccn4)ncnc32)cc1` [Example 2, 3-benzyl-7-(2-pyridyl)thio-1,2,3-triazolo-[4,5-d]pyrimidine], for which, in assay [2], the inhibition at 5 µM is 34%. On the same count and under the same terms, in the case of `c1ccc(Cn2nnc3c(Sc4ncco4)ncnc32)cc1` [Example 3, 3-benzyl-7-(2-oxazolyl)thio-1,2,3-triazolo[4,5-d]pyrimidine] it was 55%. On the same count and under the same terms, with `c1ccc(Cn2nnc3c(Sc4nccs4)ncnc32)cc1` [Example 4, 3-benzyl-7-(2-thiazolyl)thio-1,2,3-triazolo[4,5-d]pyrimidine] the figure was 45%; with `c1ccc(Cn2nnc3c(Sc4ncc[nH]4)ncnc32)cc1` [Example 5, 3-benzyl-7-(2-imidazolyl)thio-1,2,3-triazolo[4,5-d]pyrimidine], 21%; with `Cc1nc(Sc2nc3ccccc3o2)c2nnn(Cc3ccccc3)c2n1` [Example 6, 3-benzyl-7-(2-benzoxazolyl)thio-5-methyl-1,2,3-triazolo[4,5-d]pyrimidine], 39%.

For the compound `Cn1nnc2c(Sc3nc4ccccc4o3)ncnc21` [Example 8, 7-(2-benzoxazolyl)thio-3-methyl-1,2,3-triazolo[4,5-d]pyrimidine], in assay [2], the inhibition at 5 µM is 38%. The same measure, in the same setting: with `c1ccc(-n2nnc3c(Sc4nc5ccccc5o4)ncnc32)cc1` [Example 9, 7-(2-benzoxazolyl)thio-3-phenyl-1,2,3-triazolo[4,5-d]pyrimidine] the figure was 44%; with `COc1ccc(Cn2nnc3c(Sc4nc5ccccc5o4)ncnc32)cc1` [Example 10, 7-(2-benzoxazolyl)thio-3-p-methoxybenzyl-1,2,3-triazolo[4,5-d]pyrimidine], 60%. Still for that read-out and setting: in the case of `Clc1ccccc1Cn1nnc2c(Sc3nc4ccccc4o3)ncnc21` [Example 11, 7-(2-benzoxazolyl)thio-3-o-chlorobenzyl-1,2,3-triazolo[4,5-d]pyrimidine] it was 80%. On to “SOD: superoxide dismutase from bovine erythrocytes, EC1.15.1.1, used as a control”, for which, in assay [3], the “Inhibition of the signal by SOD” value is above 95%.
